Here are results for eleven molecules from ChEMBL document CHEMBL1914439, “Novel 1-alkynyl substituted 1,2-dihydroquinoline derivatives from nimesulide (and their 2-oxo analogues): a new strategy to identify inhibitors of PDE4B” (2011).

For orientation: inhibition means the percentage by which the read-out fell short of the control.

The structures appear in SMILES notation.

Test [1] addresses 3',5'-cyclic-AMP phosphodiesterase 4B (Homo sapiens) (UniProt Q07343). In words: Inhibition of recombinant His-tagged PDE4B expressed in Sf9 cells using cAMP as substrate at 30 uM preincubated for 15 mins measured after 1 hr by multilabel plate reader.
The target is the same in test [2]. In words: Inhibition of recombinant His-tagged PDE4B expressed in Sf9 cells using cAMP as substrate at 1 uM preincubated for 15 mins measured after 1 hr by multilabel plate reader.
The target is the same in test [3]. In words: Inhibition of recombinant His-tagged PDE4B expressed in Sf9 cells using cAMP as substrate at 0.3 uM preincubated for 15 mins measured after 1 hr by multilabel plate reader.
Test [4] deals with RAW264.7. The test can be described thus: Antiinflammatory activity in mouse RAW264.7 cells assessed as inhibition of LPS-induced TNFalpha challenge at 10 uM preincubated for 30 mins before LPS challenge by ELISA. The format is functional.
In test [5] the test system is RAW264.7. In words: Antiinflammatory activity in mouse RAW264.7 cells assessed as inhibition of LPS-induced TNFalpha challenge at 30 uM preincubated for 30 mins before LPS challenge by ELISA. The format is functional. In general terms: An ELISA detects its analyte on a solid surface through an enzyme-linked reagent.
Test [6] concerns the target 3',5'-cyclic-AMP phosphodiesterase 4B (Homo sapiens) (UniProt Q07343). In words: Inhibition of recombinant His-tagged PDE4B expressed in Sf9 cells using cAMP as substrate at 10 uM preincubated for 15 mins measured after 1 hr by multilabel plate reader.
For test [7] the target is unchanged. The test can be described thus: Inhibition of recombinant His-tagged PDE4B expressed in Sf9 cells using cAMP as substrate at 3 uM preincubated for 15 mins measured after 1 hr by multilabel plate reader.

Sequence of 3',5'-cyclic-AMP phosphodiesterase 4B (Homo sapiens) (Q07343 whole entry): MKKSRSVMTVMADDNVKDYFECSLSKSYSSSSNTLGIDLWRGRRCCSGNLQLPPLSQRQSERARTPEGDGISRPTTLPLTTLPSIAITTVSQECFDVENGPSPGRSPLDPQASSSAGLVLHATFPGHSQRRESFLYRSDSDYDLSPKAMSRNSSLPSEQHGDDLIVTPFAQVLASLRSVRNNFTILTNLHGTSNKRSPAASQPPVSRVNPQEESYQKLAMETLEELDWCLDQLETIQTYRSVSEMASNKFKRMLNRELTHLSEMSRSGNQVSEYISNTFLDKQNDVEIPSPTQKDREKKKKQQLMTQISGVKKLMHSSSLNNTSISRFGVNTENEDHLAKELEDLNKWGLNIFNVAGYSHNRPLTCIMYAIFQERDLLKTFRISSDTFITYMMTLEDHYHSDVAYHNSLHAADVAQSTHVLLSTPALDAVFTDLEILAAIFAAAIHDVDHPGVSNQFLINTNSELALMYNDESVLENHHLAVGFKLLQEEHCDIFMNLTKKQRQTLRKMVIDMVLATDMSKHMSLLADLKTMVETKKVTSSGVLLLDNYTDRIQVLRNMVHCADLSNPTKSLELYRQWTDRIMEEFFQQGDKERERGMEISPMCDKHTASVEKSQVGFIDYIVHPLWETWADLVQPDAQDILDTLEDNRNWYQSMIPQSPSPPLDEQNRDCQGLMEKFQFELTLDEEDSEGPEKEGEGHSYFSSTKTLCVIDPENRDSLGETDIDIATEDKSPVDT

For the molecule `O=Cc1cc2ccccc2n(CC#Cc2cccc([N+](=O)[O-])c2)c1=O`, in test [1], the inhibition was 22.6%.

Take `CC1=CC(C)(C)N(CC#Cc2cccc([N+](=O)[O-])c2)c2cc(Oc3ccccc3)c(NS(C)(=O)=O)cc21`: the inhibition in test [1] is 41.6%. For the molecule `O=Cc1cc2ccccc2n(CC#Cc2ccc([N+](=O)[O-])cc2)c1=O`, the inhibition in test [1] was 4.15%. Still for that read-out and setting: the same measure for `O=Cc1cc2ccccc2n(CC#Cc2ccccc2Cl)c1=O`: 54.4%; for `COc1ccc(C#CCn2c(=O)c(C=O)cc3ccccc32)cc1`: 22.6%. Still for that read-out and setting: the same measure for `O=Cc1cc2ccccc2n(CC#Cc2ccc(Cl)cc2)c1=O`: 26.5%; for `CC1=CC(C)(C)N(CC#Cc2ccccc2Cl)c2cc(Oc3ccccc3)c(NS(C)(=O)=O)cc21`: 40.3%; for `CC1=CC(C)(C)N(CC#Cc2ccccc2[N+](=O)[O-])c2cc(Oc3ccccc3)c(NS(C)(=O)=O)cc21`: 37.4%. On the same count and under the same terms, in the case of `Cc1ccccc1C#CCn1c(=O)c(C=O)cc2ccccc21` it was 45.5%. Regarding `COC(=O)c1ccccc1C#CCN1c2cc(Oc3ccccc3)c(NS(C)(=O)=O)cc2C(C)=CC1(C)C`, the inhibition came out at 11% in test [2]; 10% in test [3]; 33.1% in test [1]; 23% in test [6]; 16% in test [7]. For the same molecule, the inhibition at 10 µM in test [4] is 35%. The inhibition at 30 µM in test [5] came out at 47%. With `CC1=CC(C)(C)N(CC#Cc2ccc([N+](=O)[O-])cc2)c2cc(Oc3ccccc3)c(NS(C)(=O)=O)cc21`, the inhibition in test [1] is 35.1%.
